Data set [1] is described as follows: Pharmacokinetic studies in rats. The note with it: rat, in vivo, 3 mg/kg, 3 mg/kg in EtOH/Solutol/H2O formulation. The procedure: Pharmacokinetic properties of 4-(3,5-dichloro-2,4,6-trideuteriumphenoxy)-3-(3-oxo-piperazine-1-sulfonyl)-2,5,6-trideuteriumbenzonitrile 36 and 4-(3,5-dichlorophenoxy)-3-(3-oxo-piperazine-1-sulfonyl)benzonitrile C1 were determined using rats. Animals were randomized into two groups, each having 3 rats. 4-(3,5-Dichloro-2,4,6-trideuteriumphenoxy)-3-(3-oxo-piperazine-1-sulfonyl)-2,5,6-trideuteriumbenzonitrile 36 and 4-(3,5-dichlorophenoxy)-3-(3-oxo-piperazine-1-sulfonyl)benzonitrile C1 were administered at 3 mg/kg in EtOH/Solutol/H2O formulations. Pharmacokinetic parameters of 4-(3,5-dichloro-2,4,6-trideuteriumphenoxy)-3-(3-oxo-piperazine-1-sulfonyl)-2,5,6-trideuteriumbenzonitrile 36 and 4-(3,5-dichlorophenoxy)-3-(3-oxo-piperazine-1-sulfonyl)benzonitrile C1 are summarized in Table 2. 4-(3,5-dichlorophenoxy)-3-(3-oxo-piperazine-1-sulfonyl)benzonitrile C1 was synthesized according to the procedure as described in U.S. Pat. App. Pub. No.: US 2011/0218207, the disclosure of which is incorporated herein by reference in its entirety.

SMILES strings stand for the structures. Read-outs that look alike come from different tables or passages of the source.

Usually Cmax stands for the peak of the concentration-time curve. In general, Tmax refers to the time from dosing to the highest level. For orientation: half-life means the time needed for the level to fall by half in the phase considered. As usually defined, the melting point is the temperature of the solid-liquid transition. `[2H]c1c(Cl)c([2H])c(Oc2c([2H])c([2H])c(C#N)c([2H])c2S(=O)(=O)N2CCNC(=O)C2)c([2H])c1Cl` [Compound 36, 4-(3,5-dichloro-2,4,6-trideuteriumphenoxy)-3-(3-oxo-piperazine-1-sulfonyl)-2,5,6-trideuteriumbenzonitrile] registered a melting point of 207 to 210 °C. Further, in data set [1] (Rat 1), the highest level (Cmax) was 166 ng/mL, the time to peak (Tmax) was determined as 2 h and the half-life was 3.3 h. Further, the AUC in data set [1] (Rat 1, read-out: AUC) came to 820 ng·h/mL. In addition, the AUC in data set [1] (Rat 1, read-out: AUCnorm) worked out at 273 ng·h/mL. In data set [1] (Rat 2), the concentration peaked (Cmax) at 46.3 ng/mL, the Tmax is 4 h and the half-life is 1.12 h. For the same molecule, the AUC in data set [1] (Rat 2, read-out: AUC) is 272 ng·h/mL. For the same molecule, the AUC in data set [1] (Rat 2, read-out: AUCnorm) came out at 90.6 ng·h/mL. In data set [1] (Rat 3), the highest concentration (Cmax) was 128 ng/mL, the Tmax turned out to be 0.3 h and the half-life was 1.51 h. Further, in data set [1] (Rat 3, read-out: AUC), the AUC amounted to 490 ng·h/mL. Also, the AUC in data set [1] (Rat 3, read-out: AUCnorm) is 163 ng·h/mL.
On to `N#Cc1ccc(Oc2cc(Cl)cc(Cl)c2)c(S(=O)(=O)N2CCNC(=O)C2)c1` [Compound C1, 4-(3,5-dichlorophenoxy)-3-(3-oxo-piperazine-1-sulfonyl)benzonitrile, reference compound], for which the figures for the highest concentration (Cmax) in data set [1] (Rat 1), in data set [1] (Rat 2) and in data set [1] (Rat 3) were 34.4 ng/mL, 65.8 ng/mL and 59.9 ng/mL, respectively. Moreover, the values for the Tmax in data set [1] (Rat 1), in data set [1] (Rat 2) and in data set [1] (Rat 3) were 2 h, 4 h and 2 h, respectively. Further, the half-life in data set [1] (Rat 1) is 5.52 h; in data set [1] (Rat 2), 3.72 h; in data set [1] (Rat 3), 4.04 h. The AUC is 200 ng·h/mL in data set [1] (Rat 1, read-out: AUC); 66.6 ng·h/mL in data set [1] (Rat 1, read-out: AUCnorm); 450 ng·h/mL in data set [1] (Rat 2, read-out: AUC); 150 ng·h/mL in data set [1] (Rat 2, read-out: AUCnorm); 317 ng·h/mL in data set [1] (Rat 3, read-out: AUC); 106 ng·h/mL in data set [1] (Rat 3, read-out: AUCnorm).
